According to patent US11415493B2, “Detection of cells in a liquid sample” (DELTA INSTRUMENTS B.V., priority 2016, dated 2022):

Key:
E. coli = assay: Validation of flow cytometer bacterial counts versus Petrifilm CFU counts, E. coli cultures; format: cell-based, Escherichia coli; conditions: Tris-buffered saline pH 8.5, 50° C.
Experimental: First, an experiment was performed to confirm that bacterial counts obtained on the flow cytometer using GelGreen™ did correlate with traditional plate counts. For this, the Petrifilm method was selected (Standard Methods for Examination of Dairy Products 17th Edition 2004. Edited by H. M. Wehr and J. R. Frank. American Public Health Association, 800 I Street, NW, Washington D.C. 200001. Chapter 6.040), rather than a poured agar plate method, because of ease of use. Escherichia coil (E. coli) cultures were grown at 36° C. in Trypticase Soy Broth (TSB) in a culture tube. A staining composition was prepared as follows: The nucleic acid dye GelGreen™ (from Biotium) was diluted to 1× from the 10,000× commercially available stock, into Tris-buffered saline (100 mM Trizma base, 100 mM Trizma HCl, 150 mM NaCl, pH 8.5), which was preheated to 50° C. […] The stained E. coli was analyzed on the flow cytometer and the FL1 (Bandpass 531 nm (519-551)) and FL2 (Long pass >550 nm) fluorescence channels were used to identify the stained bacteria (FIGS. 1A and 1C). […] Each dilution of E. coli was stained with the GelGreen™ reagent, analyzed on the flow cytometer and counts for each dilution were obtained. […] The Petrifilms were placed in a 30° C. incubator, removed after 48 hrs and the colonies on each Petrifilm were counted using an automated colony counter. […]

bacteria in raw milk [1] = assay: IBC in raw milk samples at different temperature settings, flow cytometer; format: cell-based
Experimental: The nucleic acid dyes, Evagreen®, SYTOX® Green and Propidium iodide where tested against GelGreen™ (the reference method). […] Nucleic acid dyes Evagreen®, SYTOX® Green and propidium iodide were tested using the same staining and incubation conditions as for the reference method only differing in the type of dye comprised in the staining composition. Evagreen® was used at a concentration of 1.25 μM in the staining composition. SYTOX® Green and Propidium iodide were used at a concentration of 5 μM in the staining composition. Three different types of milk were used: Locally obtained raw bulk tank milk from a farm and dairy plant where collected at a local farmer. This milk is referred to as fresh raw milk and is not older than 24 hours. 24 hour and 48 hour old milk were obtained from a dairy plant. […] For this purpose E. coli was grown overnight (approx. 15 h) in TSB at 32° C. The dead bacterial where obtained by heating the grown E. coli at 110° C. for 10 minutes. […] All the milk samples are kept at 4° C. until analyzed. […] Finally, the samples were analyzed on the flow cytometer and the fluorescent signals from the bacteria were detected and a count per unit volume was determined. […]
From example 5 it is already clear that temperatures lower than the optimal settings result in decreased DNA staining and so bacteria counting performance. […] Milk samples were kept at 4° C. until analyzed. […]

bacteria in raw milk [2] = assay: IBC in 24 h old raw bulk milk, staining composition with Savinase, flow cytometer; format: cell-based; conditions: 68° C., 1 minute
Experimental: To verify this method with Savinase®, locally obtained raw bulk tank milk from a dairy plant was collected. […] An amount of 200 μl bacterial culture is added to a 45 ml volume of 24 h old raw bulk milk and kept at 4° C. until analyzed. The staining composition comprising GelGreenTM as the nucleic acid dye was prepared in the same way as in Example 5, except that the Alcalase® protease was replaced by 0.12 KNPU/ml Savinase® […] protease (from Novozymes). 200 μl of unheated raw milk is diluted with the 1800 μl staining composition and incubated at approximately 68° C. for 1 minute; the sample is sonicated for 5 seconds at 40 kHz in the before and after the incubation step and analyzed on the flow cytometer; the fluorescent signals from the bacteria were detected and a count per unit volume was determined. Traditional plate counts were used to obtain a bacterial reference count. As used herein, the term “traditional plate counts”, refers to Petrifilm Aerobic Count Plates (AOAC Official Method 986.33). The LOG of individual bacterial count (IBC)/ml from 24 h raw milk in the flow cytometer is 5.61, the LOG of CFU/ml petrifilm is 4.83. The LOG of IBC from 24 h raw milk spiked with E. coli LOG in the flow cytometer is 6.48. The LOG of CFU/ml petrifilm is 6.69.

bacteria in raw milk [3] = assay: IBC in raw milk samples at different pH settings, flow cytometer; format: cell-based

CN(C)c1ccc2cc3ccc(N(C)C)cc3[n+](CCCCCC(=O)NCCCOCCOCCOCCCNC(=O)CCCCC[n+]3c4cc(N(C)C)ccc4cc4ccc(N(C)C)cc43)c2c1.[I-].[I-] [GelGreen™]
relationship of Log flow cytometer bacterial counts versus Log CFU counts from Petrifilm (E. coli): clear linear relationship
IBC compared to the 68° C. based reference method (bacteria in raw milk [1]; 40° C., fresh spiked milk): way too low
IBC compared to the 68° C. based reference method (bacteria in raw milk [1]; 90° C., all the samples): slightly higher
LOG of IBC in the flow cytometer (bacteria in raw milk [2]; 24 h raw milk spiked with E. coli): 6.48
LOG of individual bacterial count (IBC)/ml in the flow cytometer (bacteria in raw milk [2]; 24 h raw milk): 5.61
IBC higher compared to the reference method (pH 10.6) (bacteria in raw milk [3]; pH 7.0, fresh milk): more than 1.5 million counts per ml
IBC compared to the reference method (pH 10.6) (bacteria in raw milk [3]; pH 8.7): comparable with the reference method
